Source: US9271982B2, “Animal feed supplement comprising ractopamine and caffeine” (Rivalea (Australia) Pty Ltd, priority 2012, dated 2016)
Counter-ions that a name gives are not always drawn. Like-named read-outs stand apart in the source and are kept apart here.

Legend:
[1] = test system: finisher gilts and Improvac males; test: Study 1: deaths, removals and animal welfare during the test period; settings: for Deaths (dead/total pigs in treatment group) / Deaths, percentage of pigs: Study 1, entire 35 day test period
From the text: (§1) Pigs were selected to start on trial over three days during week 20 of the test year. […] All diets were formulated to contain 0.62 g available lysine/MJ DE and 13.8 MJ DE/kg.

[2] = test system: female and immunocastrated male pigs; test: Study 3: RAC+caffeine feeding strategy over summer, growth performance and carcase characteristics; format: in vivo, pig
Procedure: (§2) Data were subjected to an analysis of variance (ANOVA) with the main effects being dietary treatment and sex. Replicate (start date within week) was included in the analyses to account for the blocking factor. The experimental unit for all analyses was the pen of pigs. All analyses were performed using Genstat 8th Edition (Payne et al. 2005).

[3] = test system: finisher gilts and Improvac males; format: in vivo, pig; settings: for ADFI / FCR / Live weight Day 0 / Live weight Day 14 / Live weight Day 35: RAC 7.5 ppm / caffeine 0.5 kg/t in feed; for Live weight Day 0: day 0 baseline, 16 wk of age; for % pigs P2 >12 mm (carcass weight as covariate): carcass weight included as covariate; for % pigs P2 >12 mm: no covariate
Procedure: as §1
as §2, with “R W, Harding S A, Genstat Committee 2005 Genstat release 8 reference manual, USN International: Oxford UK)” for “et al. 2005).”

[4] = test system: female and immunocastrated male pigs; settings: Study 3, 35 day test period
Procedure: All animals were selected to start the trial on the one day. Prior to the start of the trial, all pigs were offered a commercial grower diet (no Paylean) and had been in their allocated pens from 10 weeks of age. No remixing of pigs occurred before the start of the test period. […] Oxytetracycline was included in water for two days every fortnight for lawsonia control.
The priming Improvac™ vaccination was administered to the male pigs at 13 weeks of age and the second vaccination at 17 weeks of age (day 0 of the experimental period). Pen weights were recorded at the beginning of the experimental period (day 0, 17 weeks of age) and again at day 14 and day 35 (prior to slaughter). Pen feed Intakes were also recorded over these time periods as measured by feed disappearance and feed conversion efficiency subsequently calculated. All deaths and removals were recorded and taken into account when calculating feed intake and feed efficiency by the adjustment of the number of days that pigs were on trial.

[5] = test system: female and immunocastrated male pigs; test: Study 2: RAC+caffeine strategy on heavier weight finishers, growth performance and carcass characteristics; format: in vivo, pig; settings: for ADFI / ADG / FCR: Study 2, RAC 7.5 ppm
From the text: Pigs were selected over a two week period. […] A: Control; B: […] The interpretation of results is then a direct measure of the impact of commercial diets without RAC and commercial diets that do contain RAC. […] Pigs were slaughtered in a commercial abattoir at the conclusion of the test period. A subset of carcasses (n=12 per treatment) were randomly selected at the abattoir and followed through the boning room for meat yield assessment. Data were subjected to an analysis of variance (ANOVA) with the main effects being dietary treatment and sex. Replicate (start date within week) was included in, the analyses to account for the blocking factor. The experimental unit for all analyses was the pen of pigs. All analyses were performed using Genstat 8th Edition (Payne et al. 2005).

[6] = test system: female and immunocastrated male pigs; test: Study 2: carcass (meat) yield in a subset of carcasses followed through the boning room; format: in vivo, pig; settings: Study 2 subset of carcasses, n = 12 per treatment
From the text: Pigs were slaughtered in a commercial abattoir at the conclusion of the test period. A subset of carcasses (n=12 per treatment) were randomly selected at the abattoir and followed through the boning room for meat yield assessment.
as §2, with “included in,” for “included in”

finisher pigs = test: Earlier study evaluating caffeine inclusion rates in finisher diets; format: in vivo, pig; settings: for Feed intake: without caffeine 2.62 kg/d
From the text: The management of weight and carcass P2 during Autumn is critical in markets that are paid on a grid of both parameters. The rate of fat deposition is at a maximum during the finisher period and is related to the amount of energy consumed by the pig. Excess energy intake above that required for protein deposition during this time is deposited as fat. As such, strategies to reduce feed intake from the excessive highs during autumn are often implemented. Caffeine is one ingredient that can be included in finisher diets to limit excessive feed intake. A study evaluating caffeine inclusion rates was conducted with the results confirming the intake restricting effects of caffeine inclusion. Feed intake was reduced from 2.62 kg/d to 2.45 and 2.33 kg/d with caffeine included in the diet at either 0.5 kg/t or 0.75 kg/t respectively. […] There has however been no evaluation of the effects of caffeine inclusion when the finisher diet also contains Paylean™. As such, the aim of this study was to determine the effects of caffeine inclusion when Paylean™ is also present in the finisher diet.

[7] = Study 1 (autumn), diets fed 35 days
[8] = Study 1 (autumn), diets fed 35 days, slaughter at 21 wk
[9] = caffeine 0.5 kg/t in feed, 0-14 days
[10] = caffeine 0.5 kg/t in feed, 0-28 days
[11] = caffeine 0.5 kg/t in feed, 14-28 days
[12] = Study 2, carcass weight included as covariate

## CC(CCc1ccc(O)cc1)NCC(O)c1ccc(O)cc1 (racemic) [RAC, Ractopamine hydrochloride]
[1]; Study 1, 0-14 days
  Off trial: Lame (number of pigs): 1
  Off trial: Meningitis (number of pigs): 1
  Off trial: Wound (number of pigs): 1
  TOTAL deaths and removals (number of pigs): 3
[1]; Study 1, 14-35 days
  Deaths: Hernia (number of pigs): 1
  Deaths: Ileitis (number of pigs): 1
  Off trial: Lame (number of pigs): 1
  TOTAL deaths and removals (number of pigs): 3
[1]
  Deaths (dead/total pigs in treatment group): 2/298
  Deaths, percentage of pigs: 0.67%
[2]; Study 3 (summer), RAC 7.5 ppm, caffeine 0.5 kg/t in feed, day 14
  Live weight Day 14: 79.4 kg
[2]; Study 3 (summer), RAC 7.5 ppm, caffeine 0.5 kg/t in feed, day 35
  Live weight Day 35: 100.5 kg
[2]; Study 3 (summer), Day 0-14
  Average daily feed intake: 2.36 kg/day
  Average daily gain: 1.132 kg/day
  Feed conversion ratio: 2.15 kg/kg
[2]; Study 3 (summer), Day 0-35
  Average daily feed intake: 2.62 kg/day
  Average daily gain: 1.056 kg/day
  Feed conversion ratio: 2.48 kg/kg
[2]; Study 3 (summer), Day 14-35
  Average daily feed intake: 2.79 kg/day
  Average daily gain: 1.004 kg/day
  Feed conversion ratio: 2.80 kg/kg
[2]; Study 3 (summer), carcase
  Loin muscle depth: 58.4 mm
[2]; Study 3 (summer), carcase, carcase weight not taken into account
  P2: 11.3 mm
[2]; Study 3 (summer, 17-22 wk), RAC 7.5 ppm, caffeine 0.5 kg/t in feed, day 0 baseline
  Live weight Day 0: 63.5 kg
[2]; Study 3, RAC at 7.5 ppm over the summer period
  Response (feed efficiency, daily gain, carcass composition) in words: negligible
[2]; Study 3, entire test period
  Average feed consumed: 2.6 kg feed/day
[2]; Study 3, initial 14 day period, not significant
  Feed efficiency, more efficient than the control animals: approximately 4%
[2]; Study 3, initial 14 days
  Average feed intake: 2.36 kg/day
[3]; Study 1 (autumn), 0-14 days
  ADFI: 2.72 kg/day
  FCR: 2.34 kg/kg
[3]; Study 1 (autumn), 0-35 days
  ADFI: 2.96 kg/day
  FCR: 2.67 kg/kg
[3]; Study 1 (autumn), 14-35 days
  ADFI: 3.13 kg/day
  FCR: 2.92 kg/kg
[3]; Study 1 (autumn)
  Live weight Day 0: 61.2 kg
  Live weight Day 14: 77.6 kg
  Live weight Day 35: 100.1 kg
[3]; [7]
  Dressing %: 77.6%
  % pigs P2 >12 mm (carcass weight as covariate): 26.4%
  % pigs P2 >12 mm: 29.0%
[3]; [8]
  Carcass P2 (carcass weight as covariate): 10.9 mm
  Carcass weight: 77.6
[4]
  Combined deaths and removals (number/total pigs): 5/228
  Combined deaths and removals, percentage: 2.2%
  Deaths: APP (number of pigs): 2
  Deaths: Lame (number of pigs): 2
  Removals: Unthrifty (number of pigs): 1
[5]; Study 2
  Dressing %: 77.1%
[5]; Study 2 (22-26 wk), RAC 7.5 ppm, caffeine 0.5 kg/t in feed, day 0 baseline
  Live weight Day 0: 92.1 kg
[5]; Study 2 (22-26 wk), RAC 7.5 ppm, caffeine 0.5 kg/t in feed, day 14
  Live weight Day 14: 106 kg
[5]; Study 2 (22-26 wk), RAC 7.5 ppm, caffeine 0.5 kg/t in feed, day 28, in kg (unit assumed)
  Live weight Day 28: 120.1
[5]; [9]
  ADFI: 2.92 kg/day
  ADG: 0.995 kg/day
  FCR: 2.98 kg/kg
[5]; [10]
  ADFI: 3.04 kg/day
  ADG: 1.002 kg/day
  FCR: 3.11 kg/kg
[5]; [11]
  ADFI: 3.15 kg/day
  ADG: 1.008 kg/day
  FCR: 3.28 kg/kg
[5]; [12]
  Carcass P2 (carcass weight as covariate): 11.9 mm
  Loin depth (carcass weight as covariate): 58.3 mm
[5]; Study 2, no covariate
  Carcass P2: 12.0 mm
[5]; Study 2, slaughter at 26 wk
  Carcass weight: 92.9 kg
[6]
  Carcass P2 (carcass weight as covariate): 12.2 mm
  Cold carcass weight: 82.6 kg
  HSCW: 93.4 kg
  Loin depth (carcass weight as covariate): 58.2 mm
  Percentage Yield: Belly: 20.7%
  Percentage Yield: Belly Ribs: 11.39%
  Percentage Yield: Leg 90% chemical lean: 6.90%
  Percentage Yield: Middle 60-65% chemical lean: 2.43%
  Percentage Yield: Middle 80-85% chemical lean: 9.72%
  Percentage Yield: Middle rind plus fat: 10.58%
  Percentage Yield: Middle total fat: 7.36%
  Percentage Yield: Retail leg: 35.80%
  Percentage Yield: Tenderloin: 3.65%
  Percentage Yield: Topside cap off rind less: 7.79%

## Cn1c(=O)c2c(ncn2C)n(C)c1=O [Caffeine]
[1]; Large White×Landrace, pig, in vivo
  Off trial: Meningitis (number of pigs): 1
[1]; Study 1, 0-14 days
  TOTAL deaths and removals (number of pigs): 0
[1]; Study 1, 14-35 days
  Deaths: Ileitis (number of pigs): 1
  Deaths: SD (number of pigs): 1
  TOTAL deaths and removals (number of pigs): 4
[1]
  Deaths (dead/total pigs in treatment group): 2/307
  Deaths, percentage of pigs: 0.65%
[1]; both, Large White×Landrace, pig, in vivo
  Off trial: Lame (number of pigs): 1
[3]; Study 1 (autumn), 0-14 days
  ADFI: 2.44 kg/day
  FCR: 2.64 kg/kg
[3]; Study 1 (autumn), 0-35 days
  ADFI: 2.70 kg/day
  FCR: 2.78 kg/kg
[3]; Study 1 (autumn), 14-35 days
  ADFI: 2.88 kg/day
  FCR: 2.89 kg/kg
[3]; Study 1 (autumn)
  Live weight Day 0: 61.3 kg
  Live weight Day 14: 74.2 kg
  Live weight Day 35: 95.3 kg
[3]; [7]
  Dressing %: 77.9%
  % pigs P2 >12 mm (carcass weight as covariate): 22.3%
  % pigs P2 >12 mm: 19.5%
[3]; [8]
  Carcass P2 (carcass weight as covariate): 10.4 mm
  Carcass weight: 74.1
[3]; Study 1, statistical comparison between diets
  Carcass weight: reduced carcass weight compared to either of the RAC treatment groups
Finisher pigs; caffeine 0.5 kg/t in diet
  Reduction of growth rate: 95 g/day
  Feed intake: 2.45 kg/day
Finisher pigs; caffeine 0.75 kg/t in diet
  Reduction of growth rate: 163 g/day
  Feed intake: 2.33 kg/day
